The values below are quoted from earlier work in patent US11938119B2, “Cannabis production systems and methods” ([…], LLC, priority 2017, dated 2024).

The conditions of the series: stated "in embodiments"; no solvent system or method printed.

Consider `C=C(C)[C@@H]1CCC(C)=C[C@H]1c1c(O)cc(CCCCC)cc1O` [cannabidiol], for which the partition coefficient is 5.79.

Turning to `CCCCCc1cc(O)c2c(c1)OC(C)(C)[C@@H]1CCC(C)=C[C@@H]21` [tetrahydrocannabinol], the partition coefficient is reported as 6.99.
